Test results as given in US20210255193A1, “LYSINE REACTIVE PROBES AND USES THEREOF” (The Scripps Research Institute, priority 2017, published 2021).

Key:
PLIN3 Perilipin-3 = target: T1, PLIN3 Perilipin-3 (Homo sapiens, UniProt O60664); test: competitive isoTOP-ABPP; format: binding; parameters: key to isoTOP-ABPP reactivity ratio at lysine O60664_K257 / isoTOP-ABPP reactivity ratio at lysine O60664_K140: R = MS1 peak area ratio, DMSO (heavy) / compound-treated (light); capped at 20; details: for isoTOP-ABPP ratio (R) at liganded lysine O60664_K140 / isoTOP-ABPP ratio (R) at liganded lysine O60664_K257: sol, 231; for isoTOP-ABPP ratio, lysine O60664_K257: 50 uM_231_sol_in vitro
T1 construct: isoTOP-ABPP experiments performed in cell lysates (in vitro); endogenous in cells; host or cells: MDA-MB-231 soluble lysate
T1 sequence (O60664 1-434): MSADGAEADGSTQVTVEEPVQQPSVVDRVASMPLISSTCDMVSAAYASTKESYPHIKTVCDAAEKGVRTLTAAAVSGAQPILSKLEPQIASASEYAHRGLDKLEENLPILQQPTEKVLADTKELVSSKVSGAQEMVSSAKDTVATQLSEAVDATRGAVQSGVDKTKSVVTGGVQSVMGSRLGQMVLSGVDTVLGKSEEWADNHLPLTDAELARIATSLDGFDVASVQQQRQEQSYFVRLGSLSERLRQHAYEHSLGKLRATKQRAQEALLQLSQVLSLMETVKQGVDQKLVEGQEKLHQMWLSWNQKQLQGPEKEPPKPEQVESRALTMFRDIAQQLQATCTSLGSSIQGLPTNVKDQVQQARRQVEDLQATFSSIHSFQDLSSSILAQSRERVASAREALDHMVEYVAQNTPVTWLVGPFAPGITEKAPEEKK
Method: (§1) In vitro covalent fragment treatment for isoTOP-ABPP. All compounds were made up as solutions in DMSO (100×) and were used at a final concentration of 50 μM for activated esters and 100 μM for guanidinylating agents. For each profiling sample, 0.5 ml of lysate was treated with 5 μl of the 100× compound stock solution or 5 μl of DMSO. Samples were treated with activated esters for
(§2) STP-alkyne labeling and click chemistry. For concentration-dependent reactivity measurements by isoTOP-ABPP, 0.5 ml proteome aliquots were treated at ambient temperature with 1 mM STP-alkyne 1 (5 μl of 100 mM stock in DMSO) and 0.1 mM STP alkyne 1 (5 μl of 10 mM stock in DMSO), respectively. For competitive isoTOP-ABPP, after in vitro fragment treatment (detailed above), the samples were labeled for 1 h at ambient temperature with 0.1 mM STP-alkyne 1 (5 μl of 10 mM stock in DMSO). Samples were conjugated by copper-mediated azide-alkyne cycloaddition (CuAAC) to either the light (1 mM STP-alkyne or fragment treated) or heavy (0.1 mM STP-alkyne or DMSO treated) TEV tags (10 μl of 5 mM stocks in DMSO, final concentration=100 μM) using tris(2-carboxyethyl)phosphine hydrochloride
(§3) R value calculation and processing. The ratios of light and heavy MS1 peaks for each unique peptide were quantified with a CIMAGE software using default parameters (3 MS1 acquisitions per peak and signal to noise threshold set to 2.5). For reactivity measurements by isoTOP-ABPP, the R value was calculated from the ratio of MS1 peak areas, comparing the 1 mM STP alkyne sample (light TEV tag) with the 0.1 mM STP alkyne sample (heavy TEV tag). For competitive isoTOP-ABPP, the R value was calculated from the ratio of MS1 peak areas, comparing the DMSO treated sample (heavy TEV tag) with the compound treated sample (light TEV tag). […] Ratios for unique peptide entries are calculated for each experiment; overlapping peptides with the same modified lysine (for example, different charge states, MudPIT chromatographic steps or tryptic termini) are grouped together and the median ratio is reported as the final ratio (R). The peptide ratios reported by CIMAGE were further filtered to ensure the removal or correction of low-quality ratios in each individual data set. The quality filters applied were the following: removal of half tryptic peptides; for ratios with high standard deviations from the median (90% of the median or above) the lowest ratio was taken instead of the median; removal of peptides with R=20 and only a single MS2 event triggered during the elution of the parent ion; manual annotation of all the peptides with ratios of 20, removing any peptides with low quality elution profiles that remained after the previous curation steps (only done for competitive isoTOP-ABPP).
(§4) Cross-data processing for fragment screening. For compound treated samples, biological replicates of the same condition were averaged, if the standard deviation was below 60% of the mean; otherwise, for lysines with at least one R value <4 for a particular compound, the lowest value of the ratio set was taken. For lysines, where all R values for a particular compound were ≥4, the average was reported. For peptides containing several possible modified lysines, the lysine with the highest number of quantification events was used for analysis and the remaining, redundant peptides were reported as alternative modification sites. Peptides included in the aggregate dataset (those used for further bioinformatics and statistical analyses) were required to have been quantified in 2 experiments for competitive isoTOP-ABPP. Lysines were categorized as liganded, if they had at least one ratio R≥4 (hit fragments). For liganded lysines with R=20 for all liganding events, lysines were required to have been quantified with R=20 in two separate experiments and were further required to have been quantified with R<20 in one additional experiment.

[1] = target: T2, CPOX Coproporphyrinogen-III oxidase, mitochondrial (Homo sapiens, UniProt P36551); test: competitive isoTOP-ABPP; format: binding; parameters: key to isoTOP-ABPP reactivity ratio at lysine P36551_K404: R = MS1 peak area ratio, DMSO (heavy) / compound-treated (light); details: for isoTOP-ABPP ratio (R) at liganded lysine P36551_K404 / isoTOP-ABPP reactivity ratio at lysine P36551_K404 / R value (DMSO/fragment) for probe 1 labeling: 50 uM, in vitro; for isoTOP-ABPP ratio (R) at liganded lysine P36551_K404: sol, 231; for isoTOP-ABPP reactivity ratio at lysine P36551_K404 / R value (DMSO/fragment) for probe 1 labeling: 231 sol; for R value (DMSO/fragment) for probe 1 labeling: P36551_K404; for isoTOP-ABPP ratio, lysine P36551_K404: 50 uM_231_sol_in vitro
T2 construct: isoTOP-ABPP experiments performed in cell lysates (in vitro); endogenous in cells; host or cells: soluble proteome of human cancer cell lines (MDA-MB-231; Ramos and Jurkat also prepared)
T2 sequence (P36551 111-454): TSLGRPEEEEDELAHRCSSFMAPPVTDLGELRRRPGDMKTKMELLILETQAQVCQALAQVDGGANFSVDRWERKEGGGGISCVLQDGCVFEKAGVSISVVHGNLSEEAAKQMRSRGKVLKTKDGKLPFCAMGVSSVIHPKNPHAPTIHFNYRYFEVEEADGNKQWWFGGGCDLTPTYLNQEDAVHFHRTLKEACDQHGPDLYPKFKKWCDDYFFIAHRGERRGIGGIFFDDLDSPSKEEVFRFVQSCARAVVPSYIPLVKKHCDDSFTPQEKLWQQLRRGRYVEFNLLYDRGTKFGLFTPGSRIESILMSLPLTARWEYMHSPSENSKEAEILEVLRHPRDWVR
Method: as §1, §2, §3, §4

Q: With O=C(CCc1coc2cc(F)ccc2c1=O)Oc1ccc([N+](=O)[O-])cc1[N+](=O)[O-] [fragment 36, 2,4-Dinitrophenyl 3-(7-fluoro-4-oxo-4H-chromen-3-yl)propanoate] as the compound, how does the “isoTOP-ABPP ratio (R) at liganded lysine O60664_K140” value (PLIN3 Perilipin-3; 50 uM, in vitro) read?
A: 1.5

Q: And the “isoTOP-ABPP ratio (R) at liganded lysine O60664_K257” value (PLIN3 Perilipin-3; 50 uM, in vitro)?
A: 3.9

Q: What about the “isoTOP-ABPP ratio (R) at liganded lysine P36551_K404” value [1] of the same compound?
A: 1.0

Q: For O=C(Oc1ccc([N+](=O)[O-])cc1[N+](=O)[O-])C(c1ccccc1)(c1ccccc1)c1ccccc1 [fragment 42, 2,4-Dinitrophenyl 2,2,2-triphenylacetate], which “isoTOP-ABPP ratio (R) at liganded lysine O60664_K140” value (PLIN3 Perilipin-3; 50 uM, in vitro) is on record?
A: 0.9

Q: And the “isoTOP-ABPP ratio (R) at liganded lysine O60664_K257” value (PLIN3 Perilipin-3; 50 uM, in vitro)?
A: 0.9

Q: And the “isoTOP-ABPP ratio (R) at liganded lysine P36551_K404” value [1]?
A: 1.0

Q: O=C(CCc1coc2cc(F)ccc2c1=O)Oc1c(F)c(F)c(F)c(F)c1F [fragment 26, Pentafluorophenyl 3-(7-fluoro-4-oxo-4H-chromen-3-yl)propanoate] was tested. Which “isoTOP-ABPP reactivity ratio at lysine O60664_K140” value (PLIN3 Perilipin-3; 50 uM, 231 sol, in vitro) did it give?
A: 1.2

Q: And the “isoTOP-ABPP reactivity ratio at lysine O60664_K257” value (PLIN3 Perilipin-3; 50 uM, 231 sol, in vitro)?
A: 4.1

Q: And the “isoTOP-ABPP reactivity ratio at lysine P36551_K404” value [1]?
A: 1.1

Q: What does the source list for O=C(Oc1ccc([N+](=O)[O-])cc1[N+](=O)[O-])c1ccccc1Nc1cccc(C(F)(F)F)c1 [fragment 40, 2,4-Dinitrophenyl 2-((3-(trifluoromethyl)phenyl)amino)benzoate]?
A: isoTOP-ABPP ratio (R) at liganded lysine O60664_K257 (PLIN3 Perilipin-3; 50 uM, in vitro): 1.6; isoTOP-ABPP ratio (R) at liganded lysine P36551_K404 [1]: 1.8

Q: With O=C(Oc1ccc([N+](=O)[O-])cc1[N+](=O)[O-])C1CCN(C(=O)OCc2ccccc2)CC1 [fragment 34, 1-Benzyl 4-(2,4-dinitrophenyl) piperidine-1,4-dicarboxylate] as the compound, how does the “isoTOP-ABPP ratio (R) at liganded lysine P36551_K404” value [1] read?
A: 1.1

Q: With Cn1cc(CC(=O)Oc2c(F)c(F)c(F)c(F)c2F)c2ccccc21 [fragment 22, Pentafluorophenyl 2-(1-methyl-1H-indol-3-yl)acetate] as the compound, how does the “R value (DMSO/fragment) for probe 1 labeling” value (from here on “R value (DMSO/fragment)”) (PLIN3 Perilipin-3; O60664_K257, 50 uM, 231 sol, in vitro) read?
A: 2.6

Q: What about the “R value (DMSO/fragment)” value [1] of the same compound?
A: 1.1

Q: O=C(Oc1c(F)c(F)c(C(F)(F)F)c(F)c1F)c1cc(C(F)(F)F)cc(C(F)(F)F)c1 [fragment 47, 2,3,5,6-Tetrafluoro-4-(trifluoromethyl)phenyl 3,5-bis(trifluoromethyl)benzoate] was tested. Which “isoTOP-ABPP ratio, lysine P36551_K404” value [1] did it give?
A: 1.5

Q: How did the “isoTOP-ABPP ratio (R) at liganded lysine P36551_K404” value [1] turn out when O=C(CC12CC3CC(CC(C3)C1)C2)Oc1ccc([N+](=O)[O-])cc1[N+](=O)[O-] [fragment 38, 2,4-Dinitrophenyl 2-(adamantan-1-yl)acetate] was run?
A: 1.0

Q: Which results are given for O=C(ON1C(=O)CCC1=O)c1cc(C(F)(F)F)cc(C(F)(F)F)c1 [fragment 46, 3,5-Bis(trifluoromethyl)benzoic acid NHS ester]?
A: isoTOP-ABPP ratio, lysine O60664_K257 (PLIN3 Perilipin-3): 0.6; isoTOP-ABPP ratio, lysine P36551_K404 [1]: 1.0

Q: Which “isoTOP-ABPP ratio, lysine O60664_K257” value (PLIN3 Perilipin-3) does the source give for NC(=O)c1cc(C(F)(F)F)cc(C(F)(F)F)c1 [fragment 51, reference compound] here?
A: 1.0

Q: And the “isoTOP-ABPP ratio, lysine P36551_K404” value [1]?
A: 0.9

Q: With O=C(Oc1ccc([N+](=O)[O-])cc1[N+](=O)[O-])c1cc(C(F)(F)F)cc(C(F)(F)F)c1 [fragment 31, 2,4-Dinitrophenyl 3,5-bis(trifluoromethyl)benzoate] as the compound, how does the “isoTOP-ABPP reactivity ratio at lysine P36551_K404” value [1] read?
A: 1.1

Q: Which “isoTOP-ABPP ratio (R) at liganded lysine P36551_K404” value [1] does the source give for CC(=O)Oc1ccc([N+](=O)[O-])cc1[N+](=O)[O-] [fragment 43, 2,4-Dinitrophenyl acetate] here?
A: 1.1

Q: How did the “isoTOP-ABPP reactivity ratio at lysine P36551_K404” value [1] turn out when O=C(Oc1c(F)c(F)c(F)c(F)c1F)c1ccc2ccccc2n1 [fragment 25, Pentafluorophenyl quinoline-2-carboxylate] was run?
A: 1.3

Q: Which “isoTOP-ABPP reactivity ratio at lysine P36551_K404” value [1] does the source give for Cn1cc(CC(=O)Oc2ccc([N+](=O)[O-])cc2[N+](=O)[O-])c2ccccc21 [fragment 32, 2,4-Dinitrophenyl 2-(1-methyl-1H-indol-3-yl)acetate] here?
A: 1.0

Q: With COc1cc(CCC(=O)Oc2c(F)c(F)c(F)c(F)c2F)cc(OC)c1OC [fragment 23, Pentafluorophenyl 3-(3,4,5-trimethoxyphenyl)propanoate] as the compound, how does the “R value (DMSO/fragment)” value [1] read?
A: 1.3
